Measurements: US12564188B2, “Hydrogel beads for controlled uptake and release of cryoprotective agents” (The General Hospital Corporation, priority 2020, dated 2026)
Where two headings read alike, the source gives them in different places.

Assays:
[1] = DMSO release from hydrogel beads into saline, osmolality by micro-osmometer; assay type: physicochemical; details: room temperature, 5.0 μL beads incubated in 15% DMSO
Protocol: Here, beads 1-5 mm in diameter were synthesized using microfluidic droplet generation and 2% polyacrylamide/bis-acrylamide, following standard oil emulsion methods^43, and beads were synthesized using calcium alginate. Uniform calcium-alginate hydrogel beads were synthesized by dripping 5% alginate from a needle with a surrounding nitrogen gas sheath into a CaCl2 bath. Bead size and uniformity was confirmed by imaging. 5.0 μL beads were incubated for four hours in a 15% DMSO solution, then strained, blotted, and weighed. Beads were then suspended in saline for several minutes under gentle mixing, and the rate of DMSO release was measured over time by sampling the solution and measuring osmolality by micro-osmometer. The rate of release was compared with numerical simulations of diffusion based on the average bead size (FIG. 3). The diffusion coefficient of DMSO within the gel was measured to be 1.0×10^−5 cm^2s^−1 at room temperature, matching expected values^41,42.
Expected outcomes and alternative approaches: The key metric of success is the ability to reliably add and then remove CPA from a given sample solution at tunable rates which are predicted by modeling. Bead geometry alone is sufficient to achieve gradual CPA uptake and release. The sample recovery was about 96% without any dilution in these experiments.

patients = details: cited from earlier work
[2] = DMSO implicated, co-injection with CAR T cells

C[S+](C)[O-] [DMSO, dimethyl sulfoxide]
diffusion coefficient of DMSO within the gel [1]: 1.0×10^−5 cm^2s^−1
aphasia (patients; [2]): 18%
delirium (patients; [2]): 29%
encephalopathy (patients; [2]): 34%
tremors (patients; [2]): 29%
patients experiencing nausea and vomiting (patients; co-injection of 10-20 mL DMSO along with CAR T cells): 40-60%
patients experiencing nausea and vomiting (patients; co-injection of approximately 10 mL DMSO along with thawed CAR T cell product): up to 60%
